Literature values, collected in patent US9173848B2, “Solid pharmaceutical fixed dose compositions comprising irbesartan and amlodipine, their preparation and their therapeutic application” (SANOFI, priority 2009, dated 2015).

What was measured:
[1] = in vivo

solubility in water	absolute bioavailability [1]	media of maximum solubility (parabolic pH solubility profile)	Compound
slightly soluble	64-90%	–	CCOC(=O)C1=C(COCCN)NC(C)=C(C(=O)OC)C1c1ccccc1Cl (stereo not shown) [Amlodipine besylate]
insoluble	–	0.1 N HCl and pH 7.5 phosphate buffer	CCCCC1=NC2(CCCC2)C(=O)N1Cc1ccc(-c2ccccc2-c2nnn[nH]2)cc1 [Irbesartan, 2-n-butyl-4-spirocyclopentane-1-[(2′-(tetrazol-5-yl)biphenyl-4-yl)methyl]-2-imidazolin-5-one]
